Earlier results in article PMC7395068, “The evolution of strategies to minimise the risk of human drug-induced liver injury (DILI) in drug discovery and development” (Archives of Toxicology, 2020).
Read-outs that look alike come from different tables or passages of the source.

Assays:
[1] = tested on: THLE or HepG2 cells, isolated mitochondria, BSEP; details: In vitro Assay; ref Aleo 2019; cited from earlier work
[2] = cited from earlier work
[3] = ref Chen 2016; cited from earlier work
[4] = tested on: primary human hepatocytes, NIH3T3 fibroblasts, BSEP, CYP3A4; details: cited from earlier work
[5] = In vitro Assay, ref Schadt 2015

SMILES | Partition Hybrid HRM Score [1] | Ro2 Hybrid HRM Score [1] | In vivo DILI ([2]; ref Schadt 2015) | DILI +VE (5-8), DILI -VE (-4) [3] | DILI severity category [3] | Cellular toxicity (3T3 cells) [4] | Combined Assay [4] | GSH adduct HML [4] | Hepatocyte cellular toxicity [4] | MitoTox 3T3 [4] | TDI CYP3A4 [4] | hBSEP inhibition [4] | In vivo DILI ([2]; […]) | Cellular toxicity (3T3 cells) [4, 5] | Combined Assay [4, 5] | GSH adduct HML [4, 5] | Hepatocyte cellular toxicity [4, 5] | MitoTox 3T3 [4, 5] | TDI CYP3A4 [4, 5] | hBSEP inhibition [4, 5]
COCCc1ccc(OCC(O)CNC(C)C)cc1 (stereo not drawn) [metoprolol] | +VE | -VE |  |  |  |  |  |  |  |  |  |  |  |  |  |  |  |  |  | 
O=C1CN=C(c2ccccc2Cl)c2cc([N+](=O)[O-])ccc2N1 [clonazepam] |  |  | -VE | +VE | vLess-DILI-Concern | -VE | -VE | -VE | -VE | -VE | -VE | -VE |  |  |  |  |  |  |  | 
CCCC1O[C@@H]2C[C@H]3[C@@H]4CCC5=CC(=O)C=C[C@]5(C)[C@H]4[C@@H](O)C[C@]3(C)[C@]2(C(=O)CO)O1 (stereo partly drawn) [budesonide] |  |  | -VE | -VE | vNo-DILI-Concern |  |  |  |  |  |  |  | -VE | +VE | -VE | +VE | +VE | -VE | -VE | +VE
COC(=O)N[C@H](C(=O)N[C@@H](Cc1ccccc1)[C@@H](O)CN(Cc1ccc(-c2ccccn2)cc1)NC(=O)[C@@H](NC(=O)OC)C(C)(C)C)C(C)(C)C [atazanavir] |  |  | +VE | +VE | vLess-DILI-Concern |  |  |  |  |  |  |  |  | +VE | +VE | +VE | +VE | -VE | -VE | +VE
CC[C@H]1OC(=O)[C@H](C)[C@@H](O[C@H]2C[C@@](C)(OC)[C@@H](O)[C@H](C)O2)[C@H](C)[C@@H](O[C@@H]2O[C@H](C)C[C@H](N(C)C)[C@H]2O)[C@](C)(OC)C[C@@H](C)C(=O)[C@H](C)[C@@H](O)[C@]1(C)O [clarithromycin] |  |  | +VE | +VE | vMost-DILI-Concern |  |  |  |  |  |  |  | -VE | -VE | +VE | -VE | -VE | +VE | -VE | -VE
COc1ccccc1OCC(O)CN1CCN(CC(=O)Nc2c(C)cccc2C)CC1 (stereo not drawn) [ranolazine] |  |  | -VE | -VE | vNo-DILI-Concern | -VE | +VE | -VE | -VE | +VE | -VE | -VE |  |  |  |  |  |  |  | 
COC(=O)C1=C(C)NC(C)=C(C(=O)OC(C)C)C1c1cccc2nonc12 (stereo not drawn) [isradipine] |  |  | -VE | +VE | vLess-DILI-Concern |  |  |  |  |  |  |  |  | +VE | -VE | +VE | +VE | -VE | -VE | +VE
CCCC(C)(COC(N)=O)COC(=O)NC(C)C (stereo not drawn) [carisoprodol] |  |  | -VE | -VE | vNo-DILI-Concern | -VE | -VE | -VE | -VE | -VE | -VE | -VE |  |  |  |  |  |  |  | 
CN1c2c(oc(=O)n(-c3ccccn3)c2=O)-c2ccccc2S1(=O)=O [droxicam] |  |  | +VE | +VE | vMost-DILI-Concern |  |  |  |  |  |  |  |  | -VE | -VE | -VE | -VE | -VE | -VE | -VE
